Earlier results on one compound are cited in patent publication US12582620B2, “Oral solutions comprising lisdexamfetamine salts” (Adalvo Limited, priority 2019, dated 2026).

For data set [1] the following is noted: acidic versus alkaline conditions.
Assay in data set [2]: not given
This is another data set of the same source.

Turning to `C[C@@H](Cc1ccccc1)NC(=O)[C@@H](N)CCCCN` [Lisdexamfetamine dimesylate, (2S)-2,6-diamino-N-[(1S)-1-methyl-2-phenylethyl] hexanamide dimethanesulfonate], the Susceptibility to hydrolysis result in data set [1] was “more hydrolysis-susceptible under alkaline conditions”. Further, under “increasing the pH from 8 to 13”, the Change of solubility entry is reported as “modest reductions”. The Solubility result (physiologically relevant pH range (pH 1-8), saturated buffered aqueous solutions) is given as “highly soluble”. The Solubility in water result in data set [2] is given as “very soluble in water”.
